Reference: patent publication US20190307843A1, “SINGLE DOSE METHODS FOR PREVENTING AND TREATING FUNGAL INFECTIONS” (Cidara Therapeutics, Inc., priority 2016, published 2019)
Starred links: 1 amine or outer side, 2 acyl side, 3 side chain; linkers in the order of their positions; H or OH if unused. Positions of bridges follow the written chain, without caps; N, C: chain ends. Non-standard residues stand in square brackets, D forms with d. Residues, ends and D or L forms follow the SMILES beside them. *: point of attachment. Orn(4R-OH,5R-OCH2CH2NMe3+) = C[N+](C)(C)CCO[C@@H](N[*:3])[C@H](O)C[C@H](N[*:1])C(=O)[*:2]; pTerphenylCO(4''-OnC5H11) = CCCCCOc1ccc(-c2ccc(-c3ccc(C(=O)*)cc3)cc2)cc1; hTyr(3S-OH,4S-OH) = N[C@H](C(=O)O)[C@H](O)[C@@H](O)c1ccc(O)cc1; Pro(3S-OH,4S-Me) = C[C@H]1CN[C@H](C(=O)O)[C@H]1O; Hyp = O=C(O)[C@@H]1C[C@@H](O)CN1

What was measured:
[1] = system: Candida albicans clinical isolates; conditions: SENTRY, Pfaller, et al 2017; cited from earlier work
A. fumigatus AF293 [2] = assay: Murine model of pulmonary aspergillosis (Example 19), terminal lung burden; assay type: in vivo, Aspergillus fumigatus
Description: A secondary endpoint for the study was terminal lung tissue burden. Immediately following confirmation of death, carcasses were frozen at −20° C. prior to tissue dissection and processing. The frozen carcasses were thawed at room temperature, the lungs removed and placed into pre-weighed bead-beating tubes containing 2 mL of PBS and subjected to mechanical disruption. Organ homogenates were diluted further in PBS and quantitatively cultured for A. fumigatus onto SABC and incubated at 30° C. for 24-48 hours.
2. Lung tissue burden data were analysed using the non-parametric Kruskal-Wallis test and if this was statistically significant all pairwise comparisons were analyzed (Conover-Inman).

C. glabrata = assay: Neutropenic murine disseminated candidiasis model, PK/PD targets, C. glabrata
A. fumigatus AF293 [3] = assay: Murine model of pulmonary aspergillosis (Example 19), survival; conditions: for survival time post infection, range / Mean Survival / Median Survival: 1 day pre-infection; for mice surviving to the end of the study: 6/treatment group, 10 days
[4] = system: A. fumigatus strain AF293; assay: Murine model of pulmonary aspergillosis (Example 13), survival
[5] = system: C. albicans SC-5314 biofilms; assay: Adhesion phase biofilms (prevention), XTT metabolic activity and CSLM; assay type: cell-based, Candida albicans
[6] = system: C. albicans SC-5314 biofilms; assay: Mature phase biofilms (treatment), XTT metabolic activity and CSLM; assay type: cell-based, Candida albicans
A. fumigatus AF293 [7] = assay: Pulmonary aspergillosis, prophylaxis, neutropenic ICR mice (Examples 17, 18), survival; assay type: in vivo, Aspergillus fumigatus
Description: Intranasal infection with A. fumigatus AF293 (10^5 CFU/mouse) on Day 0. Prophylaxis CD101 as a single dose (IP; 5, 10, 20 mg/kg) or posaconazole (PO; 2 and 10 mg/kg) 1 day prior to infection. Survival monitored for 10 days.
Intranasal challenge with A. fumigatus AF293 (10^5 CFU/mouse) was initiated on Day 0 and prophylaxis with CD101 as a single dose (IP; 5, 10, 20 mg/kg) or posaconazole (PO; 2 and 10 mg/kg) was started 1 day prior to infection. Survival was monitored for 10 days.

C. auris = assay: Murine model of disseminated candidiasis, C. auris infection, kidney CFU and survival; assay type: in vivo, Candida auris; conditions: CD101 20 mg/kg IP
[8] = system: Candida albicans ATCC SC5314; assay: Prophylaxis, neutropenic ICR mouse candidiasis model, kidney CFU; conditions: for clearance of kidney CFU: 24 hours post-challenge
[9] = C. glabrata, Median of 3 strains
[10] = CD101 20 mg/kg IP once, 20 mg/kg
[11] = CD101 60 mg/kg IP once, 60 mg/kg
[12] = CD101 5mpk Day −3 vs. CD101 5mpk Day −5
[13] = CD101 5mpk Day −5 vs. CD101 10mpk Day −5
[14] = CD101 5mpk Day −5 vs. CD101 20mpk Day −5
[15] = CD101 20mpk Day −1 vs. CD101 20mpk Day −3
[16] = Micafungin 2mpk Day −1 vs. CD101 10mpk Day −1
[17] = Micafungin 2mpk Day −1 vs. CD101 20mpk Day −1
[18] = CD101 0.25 and 1 μg/ml, 24 h, vs untreated

## CCCCCOc1ccc(-c2ccc(-c3ccc(C(=O)N[C@H]4C[C@@H](O)[C@@H](OCC[N+](C)(C)C)NC(=O)[C@@H]5[C@@H](O)[C@@H](C)CN5C(=O)[C@H]([C@@H](C)O)NC(=O)[C@H]([C@H](O)[C@@H](O)c5ccc(O)cc5)NC(=O)[C@@H]5C[C@@H](O)CN5C(=O)[C@H]([C@@H](C)O)NC4=O)cc3)cc2)cc1 [CD101] ({pTerphenylCO(4''-OnC5H11)}-[Orn(4R-OH,5R-OCH2CH2NMe3+)]T[Hyp][hTyr(3S-OH,4S-OH)]T[Pro(3S-OH,4S-Me)]; lactam 1-C)
[1]
  MIC90: 0.06 µg/mL
A. fumigatus AF293 [2]; CD101 20 mg/kg IP Day −1
  Group Geometric mean (lung burden): 4.37 × 10^3 CFU/g
  Log10 Group Geometric mean (lung burden): 3.64 CFU/g
  Log10 reduction from vehicle control: 0.53 CFU/g
A. fumigatus AF293 [2]; CD101 60 mg/kg IP Day −1
  Group Geometric mean (lung burden): 1.38 × 10^4 CFU/g
  Log10 Group Geometric mean (lung burden): 4.14 CFU/g
  Log10 reduction from vehicle control: 0.03 CFU/g
C. glabrata; C. glabrata 5592
  1 log kill 24 h Ave Free drug AUC/MIC: 0.36
  1 log kill dose: 0.43 mg/kg
  1 log kill free drug AUC0-168h/MIC: 2.54
  1 log kill total drug AUC0-168h/MIC: 317.50
  Stasis 24 h Ave free drug AUC/MIC: 0.05
  Stasis free drug AUC0-168h/MIC: 0.35
  Stasis total drug AUC0-168h/MIC: 43.16
  Static dose: 0.06 mg/kg
C. glabrata; C. glabrata 10956
  1 log kill 24 h Ave Free drug AUC/MIC: 1.20
  1 log kill dose: 17.25 mg/kg
  1 log kill free drug AUC0-168h/MIC: 8.42
  1 log kill total drug AUC0-168h/MIC: 1052.22
  Stasis 24 h Ave free drug AUC/MIC: 0.48
  Stasis free drug AUC0-168h/MIC: 3.35
  Stasis total drug AUC0-168h/MIC: 418.68
  Static dose: 6.29 mg/kg
C. glabrata; C. glabrata 35315
  1 log kill 24 h Ave Free drug AUC/MIC: 0.42
  1 log kill dose: 2.39 mg/kg
  1 log kill free drug AUC0-168h/MIC: 2.94
  1 log kill total drug AUC0-168h/MIC: 367.06
  Stasis 24 h Ave free drug AUC/MIC: 0.07
  Stasis free drug AUC0-168h/MIC: 0.50
  Stasis total drug AUC0-168h/MIC: 62.50
  Static dose: 0.34 mg/kg
C. glabrata; C. glabrata, Mean of 3 strains
  1 log kill 24 h Ave Free drug AUC/MIC: 0.66
  1 log kill dose: 6.69 mg/kg
  1 log kill free drug AUC0-168h/MIC: 4.63
  1 log kill total drug AUC0-168h/MIC: 578.93
  Stasis 24 h Ave free drug AUC/MIC: 0.20
  Stasis free drug AUC0-168h/MIC: 1.40
  Stasis total drug AUC0-168h/MIC: 174.78
  Static dose: 2.23 mg/kg
C. glabrata; [9]
  1 log kill 24 h Ave Free drug AUC/MIC: 0.42
  1 log kill dose: 2.39 mg/kg
  1 log kill free drug AUC0-168h/MIC: 2.94
  1 log kill total drug AUC0-168h/MIC: 367.06
  Stasis 24 h Ave free drug AUC/MIC: 0.07
  Stasis free drug AUC0-168h/MIC: 0.5
  Stasis total drug AUC0-168h/MIC: 62.50
  Static dose: 0.34 mg/kg
C. glabrata; C. glabrata, a number of strains
  kill at high doses: > 2 log10
A. fumigatus AF293 [3]; CD101 20 mg/kg IP once
  survival time post infection, range: 70 to 240 h
A. fumigatus AF293 [3]; [10]
  Mean Survival: 130.4 h
  Median Survival: 74.7 h
A. fumigatus AF293 [3]; CD101 20 mg/kg IP
  mice surviving to the end of the study: Two mice survived to the end of the study
A. fumigatus AF293 [3]; CD101 60 mg/kg IP once
  survival time post infection, range: 73-240
A. fumigatus AF293 [3]; [11]
  Mean Survival: 122.7 h
  Median Survival: 88.7 h
A. fumigatus AF293 [3]; CD101 60 mg/kg IP
  mice surviving to the end of the study: A single mouse survived to the end of the study
A. fumigatus AF293 [3]; CD101 20 and 60 mg/kg once one day pre-infection
  survival: slight increase in survival
[4]; CD101 5 mg/kg IP Day 0
  Mean Survival: 67.8 h
  Median Survival: 64.6 h
[4]; CD101 5 mg/kg IP Day −1
  Mean Survival: 72.1 h
  Median Survival: 67.6 h
[4]; CD101 5 mg/kg IP Day −3
  Mean Survival: 70.0 h
  Median Survival: 67.7 h
[4]; CD101 5 mg/kg IP Day −5
  Mean Survival: 65.3 h
  Median Survival: 65.3 h
[4]; CD101 10 mg/kg IP Day −1
  Mean Survival: 121.8 h
  Median Survival: 81.0 h
[4]; CD101 10 mg/kg IP Day −3
  Mean Survival: 76.9 h
  Median Survival: 73.4 h
[4]; CD101 10 mg/kg IP Day −5
  Mean Survival: 67.2 h
  Median Survival: 65.7 h
[4]; CD101 20 mg/kg IP Day −1
  Mean Survival: 155.6 h
  Median Survival: 72.3 h
[4]; CD101 20 mg/kg IP Day −3
  Mean Survival: 91.9 h
  Median Survival: 69.8 h
[4]; CD101 20 mg/kg IP Day −5
  Mean Survival: 75.5 h
  Median Survival: 69.8 h
[4]; [12]
  Log-Rank test, survival: 0.0183
  Peto-Prentice (Wilcoxon) test, survival: 0.0426
[4]; [13]
  Log-Rank test, survival: 0.0009
  Peto-Prentice (Wilcoxon) test, survival: 0.0015
[4]; [14]
  Log-Rank test, survival: 0.0009
  Peto-Prentice (Wilcoxon) test, survival: 0.0015
[4]; [15]
  Log-Rank test, survival: 0.0387
  Peto-Prentice (Wilcoxon) test, survival: 0.033
[4]; Micafungin 2mpk Day −1 vs. CD101 5mpk Day −1
  Peto-Prentice (Wilcoxon) test, survival: 0.0467
[4]; [16]
  Log-Rank test, survival: 0.0201
  Peto-Prentice (Wilcoxon) test, survival: 0.0191
[4]; [17]
  Log-Rank test, survival: 0.0047
  Peto-Prentice (Wilcoxon) test, survival: 0.0067
[4]; Vehicle vs. CD101 20mpk Day −1
  Log-Rank test, survival: NS (0.0533)
  Peto-Prentice (Wilcoxon) test, survival: 0.0465
[5]; [18]
  biofilm formation by metabolic activity (XTT): formed significantly less biofilms compared to untreated C. albicans
[5]; exposure to CD101, untreated control 36 μm
  thickness of biofilms: 4 μm
[6]; [18]
  metabolic activity (XTT) of mature biofilms: significantly less metabolic activity
[6]; CD101, untreated control 43 μm
  thickness of biofilms: 24 μm
Candida albicans SC5314; CD101 SC 1 mg/kg, by 24 hr
  animals completely cleared of CFU burden: 4 of 5
Candida albicans SC5314; CD101 SC 1, 3, and 10 mg/kg, 24 hr
  kidney CFU compared with the vehicle control: significant reduction in kidney CFU
Candida albicans SC5314; CD101 SC 3 or 10 mg/kg, 24 hr
  CFU clearance: complete CFU clearance
A. fumigatus AF293 [7]; CD101 20 mg/kg IP single dose 1 day prior to infection, 10 days
  survival rate: 30%
A. fumigatus AF293 [7]; single CD101 dose (IP; 5, 10, 20 mg/kg) one day prior to infection
  survival: dose-dependent increase in survival rate
C. auris; 2 doses, Day 14
  percent survival at the end of the study: 80%
C. auris; Day 1 and Day 4, Day 8
  average reduction in kidney CFU compared to fluconazole, amphotericin B, and vehicle treated groups: 3 log
[8]; CD101 SC 10 mg/kg at Day −3 and Day −1
  clearance of kidney CFU: Complete clearance was observed in all animals
[8]; CD101 SC 20 mg/kg on Day −3
  clearance of kidney CFU: all but one animal
[8]; CD101 SC 20 mg/kg, Day −5, −3 or −1
  kidney CFU burden: reduced CFU burden regardless of prophylactic treatment day
[8]; CD101 SC 5 or 10 mg/kg at Day −3 and Day −1
  kidney CFU: significant decrease in CFU
